Legend:
[1] = target: T1, B1R receptor of the rat (CHO K1 cells stably transfected with the B1R gene of the rat) (Rattus norvegicus, UniProt P97583); experiment: Functional study on the bradykinin receptor 1 (B1R), Ca2+ fluorescence (Fluo-4) FLIPR/Novostar assay, rB1R cells; format: cell-based; conditions: CHO-K1, 10 μM, read-out: % inhibition (rat B1R) at 10 μM
T1 construct: expressed in transfected cells; host or cells: CHO K1 cells (Chinese hamster ovary), stably transfected
T1 sequence (P97583 1-337): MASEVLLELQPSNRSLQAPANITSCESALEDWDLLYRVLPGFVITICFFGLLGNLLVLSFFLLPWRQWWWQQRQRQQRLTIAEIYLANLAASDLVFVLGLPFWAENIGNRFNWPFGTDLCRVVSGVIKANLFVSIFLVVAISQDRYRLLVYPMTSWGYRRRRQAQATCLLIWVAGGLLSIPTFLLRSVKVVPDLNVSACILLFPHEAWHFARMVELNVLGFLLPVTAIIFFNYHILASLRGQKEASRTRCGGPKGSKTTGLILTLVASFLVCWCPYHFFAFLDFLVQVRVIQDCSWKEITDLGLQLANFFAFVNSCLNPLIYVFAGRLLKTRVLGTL
Method in brief: (§1)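 Stably transfected CHO K1 cells carrying human or rat B1R were Fluo-4 loaded and Ca2+ fluorescence read by FLIPR or Novostar. Compounds were added first at 10 μM for % activation, then the EC80 agonist was applied after 6-20 min (human: Lys-Des-Arg9-bradykinin; rat: Des-Arg9-bradykinin). % inhibition is relative to maximum achievable inhibition, and IC50 comes from concentration series.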

[2] = target: T2, human B1R receptor (CHO K1 cells stably transfected with the human B1R gene) (Homo sapiens, UniProt P46663); experiment: Functional study on the bradykinin receptor 1 (B1R), Ca2+ fluorescence (Fluo-4) FLIPR/Novostar assay, hB1R cells; format: cell-based; conditions: CHO-K1, read-out: % inhibition (human B1R) at 10 μM
T2 construct: expressed in transfected cells; host or cells: CHO K1 cells (Chinese hamster ovary), stably transfected
T2 sequence (P46663 1-353): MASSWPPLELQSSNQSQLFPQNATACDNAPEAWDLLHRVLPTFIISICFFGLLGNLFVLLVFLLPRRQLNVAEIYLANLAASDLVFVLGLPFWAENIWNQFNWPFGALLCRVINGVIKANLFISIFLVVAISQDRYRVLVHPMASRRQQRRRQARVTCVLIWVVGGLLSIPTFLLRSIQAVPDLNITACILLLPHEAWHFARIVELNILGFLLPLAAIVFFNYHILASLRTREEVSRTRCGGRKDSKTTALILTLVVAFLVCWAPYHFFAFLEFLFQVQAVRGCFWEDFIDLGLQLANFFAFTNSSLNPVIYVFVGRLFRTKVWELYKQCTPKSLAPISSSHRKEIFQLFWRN
Method in brief: as §1

Compound	inhibition at 10 µM [1] [%]	inhibition at 10 µM [2] [%]
CN(C(=O)c1ccc2c(c1)[C@H](NC(=O)c1ccccc1Cl)CC2)C1CCN(C(=O)CCN2CCCCC2)CC1 [Example H-90, (3R)-3-[(2-Chloro-benzoyl)amino]-N-methyl-N-[1-(3-piperidin-1-yl-propanoyl)-piperidin-4-yl]-2,3-dihydro-1H-indene-5-carboxylic acid amide]	105	62
Cc1cc(N2CCC(N(C)C(=O)c3ccc4c(c3)[C@H](NC(=O)c3cccnc3C(F)(F)F)CC4)CC2)nc(C)n1 [Example H-91, N-[(1R)-6-[[1-(2,6-Dimethyl-pyrimidin-4-yl)-piperidin-4-yl]-methyl-carbamoyl]-2,3-dihydro-1H-inden-1-yl]-2-(trifluoromethyl)-pyridine-3-carboxylic acid amide]	108	100
Cc1cc(N2CCC(N(C)C(=O)c3ccc4c(c3)[C@H](NC(=O)c3cccnc3C(F)(F)F)CC4)CC2)ccn1 [Example H-92, N-[(1R)-6-[Methyl-[1-(2-methyl-pyridin-4-yl)-piperidin-4-yl]-carbamoyl]-2,3-dihydro-1H-inden-1-yl]-2-(trifluoromethyl)-pyridine-3-carboxylic acid amide]	106	100
Cc1cc(N2CCC(N(C)C(=O)c3ccc4c(c3)[C@H](NC(=O)CCC3CCCC3)CC4)CC2)ccn1 [Example H-93, (3R)-3-(3-Cyclopentyl-propanoylamino)-N-methyl-N-[1-(2-methyl-pyridin-4-yl)-piperidin-4-yl]-2,3-dihydro-1H-indene-5-carboxylic acid amide]	103	100
Cc1cc(N2CCC(N(C)C(=O)c3ccc4c(c3)[C@H](NC(=O)CCC3CCCC3)CC4)CC2)nc(C)n1 [Example H-94, (3R)-3-(3-Cyclopentyl-propanoylamino)-N-[1-(2,6-dimethyl-pyrimidin-4-yl)-piperidin-4-yl]-N-methyl-2,3-dihydro-1H-indene-5-carboxylic acid amide]	99	100
Cc1cc(N2CCC(N(C)C(=O)c3ccc4c(c3)[C@H](NC(=O)c3cc(C)on3)CC4)CC2)ccn1 [Example H-95, 5-Methyl-N-[(1R)-6-[methyl-[1-(2 methyl-pyridin-4-yl)-piperidin-4-yl]-carbamoyl]-2,3-dihydro-1H-inden-1-yl]-isoxazole-3-carboxylic acid amide]	104	100
Cc1cc(N2CCC(N(C)C(=O)c3ccc4c(c3)[C@H](NC(=O)c3cc(C)on3)CC4)CC2)nc(C)n1 [Example H-96, N-[(1R)-6-[[1-(2,6-Dimethyl-pyrimidin-4-yl)-piperidin-4-yl]-methyl-carbamoyl]-2,3-dihydro-1H-inden-1-yl]-5-methyl-isoxazole-3-carboxylic acid amide]	104	100
CN(C(=O)c1ccc2c(c1)[C@H](NC(=O)c1ccccc1Cl)CC2)C1CCN(c2cc[n+]([O-])cc2)CC1 [Example H-98, (3R)-3-[(2-Chloro-benzoyl)amino]-N-methyl-N-[1-(1-oxido-pyridin-1-ium-4-yl)-piperidin-4-yl]-2,3-dihydro-1H-indene-5-carboxylic acid amide]	105	100
CN(C(=O)c1ccc2c(c1)[C@H](NC(=O)c1ccccc1Cl)CC2)C1CCC(N2CCc3cnccc3C2)CC1 (stereo partly drawn) [Example H-99, (3R)-3-[(2-Chloro-benzoyl)amino]-N-methyl-N-[4-(1,2,3,4-tetrahydro-[2,6]naphthyridin-2-yl)-cyclohexyl]-2,3-dihydro-1H-indene-5-carboxylic acid amide]	104	81
CN(C)c1cc(N2CCC(N(C)C(=O)c3ccc4c(c3)[C@H](NC(=O)c3ccccc3Cl)CC4)CC2)ccn1 [Example H-100, (3R)-3-[(2-Chloro-benzoyl)amino]-N-[1-(2-dimethylamino-pyridin-4-yl)-piperidin-4-yl]-N-methyl-2,3-dihydro-1H-indene-5-carboxylic acid amide]	103	100
COc1ccc(N2CCC(N(C)C(=O)c3ccc4c(c3)[C@H](NC(=O)c3ccccc3Cl)CC4)CC2)cn1 [Example H-101, (3R)-3-[(2-Chloro-benzoyl)amino]-N-[1-(6-methoxy-pyridin-3-yl)-piperidin-4-yl]-N-methyl-2,3-dihydro-1H-indene-5-carboxylic acid amide]	95	13
CN(C)c1ncc2c(n1)CCN(C1CCC(N(C)C(=O)c3ccc4c(c3)[C@H](NC(=O)c3ccccc3Cl)CC4)CC1)C2 (stereo partly drawn) [Example H-102, (3R)-3-[(2-Chloro-benzoyl)amino]-N-[4-(2-dimethylamino-5,6,7,8-tetrahydro-pyrido[4,3-d]pyrimidin-6-yl)-cyclohexyl]-N-methyl-2,3-dihydro-1H-indene-5-carboxylic acid amide]	103	68
CN1CCN([C@@H]2CCC[C@H](N(C)C(=O)c3ccc4c(c3)[C@H](NC(=O)c3ccccc3Cl)CC4)C2)CC1 [Example H-103, (3R)-3-[(2-Chloro-benzoyl)amino]-N-methyl-N-[(1S,3R)-3-(4-methyl-piperazin-1-yl)-cyclohexyl]-2,3-dihydro-1H-indene-5-carboxylic acid amide]	72	27
CN1CCN([C@@H]2CCC[C@H](N(C)C(=O)c3ccc4c(c3)[C@H](NS(=O)(=O)c3ccccc3Cl)CC4)C2)CC1 [Example H-104, (3R)-3-[[(2-Chlorophenyl)sulfonyl]amino]-N-methyl-N-[(1S,3R)-3-(4-methyl-piperazin-1-yl)-cyclohexyl]-2,3-dihydro-1H-indene-5-carboxylic acid amide]	37	75
CN(C(=O)c1ccc2c(c1)C(N(C(=O)c1ccccc1Cl)C(C)(C)C)CC2)C1CCN(c2ccncc2)CC1 (stereo not drawn) [Example H-110, 3-[tert-Butyl-(2-chloro-benzoyl)-amino]-N-methyl-N-(1-pyridin-4-yl-piperidin-4-yl)-2,3-dihydro-1H-indene-5-carboxylic acid amide]	26	23
CN1CCN([C@@H]2CCC[C@H](N(C)C(=O)c3ccc4c(c3)CC[C@H]4N3Cc4cccc(Cl)c4C3=O)C2)CC1 [Example H-111, (1R)-1-(4-Chloro-3-oxo-1,2-dihydro-isoindol-2-yl)-N-methyl-N-[(1S,3R)-3-(4-methyl-piperazin-1-yl)-cyclohexyl]-2,3-dihydro-1H-indene-5-carboxylic acid amide]	10	65
COc1cc(N2CCC(N(C)C(=O)c3ccc4c(c3)[C@H](NC(=O)c3ccccc3Cl)CC4)CC2)ccn1 [Example H-112, (3R)-3-[(2-Chloro-benzoyl)amino]-N-[1-(2-methoxy-pyridin-4-yl)-piperidin-4-yl]-N-methyl-2,3-dihydro-1H-indene-5-carboxylic acid amide]	99	99
CN(C)c1ccc(N2CCC(N(C)C(=O)c3ccc4c(c3)[C@H](NC(=O)c3ccccc3Cl)CC4)CC2)cn1 [Example H-113, (3R)-3-[(2-Chloro-benzoyl)amino]-N-[1-(6-dimethylamino-pyridin-3-yl)-piperidin-4-yl]-N-methyl-2,3-dihydro-1H-indene-5-carboxylic acid amide]	100	98
CN(C(=O)c1ccc2c(c1)[C@H](NC(=O)c1ccccc1Cl)CC2)C1CCC(Oc2ccncc2)CC1 (stereo partly drawn) [Example H-114, (3R)-3-[(2-Chloro-benzoyl)amino]-N-methyl-N-(4-pyridin-4-yloxy-cyclohexyl)-2,3-dihydro-1H-indene-5-carboxylic acid amide]	96	38
CN(C(=O)c1ccc2c(c1)[C@H](NC(=O)c1ccccc1Cl)CC2)C1CCCN(c2ccncc2)C1 (stereo partly drawn) [Example H-115, (3R)-3-[(2-Chloro-benzoyl)amino]-N-methyl-N-(1-pyridin-4-yl-piperidin-3-yl)-2,3-dihydro-1H-indene-5-carboxylic acid amide]	63	13
CN(C(=O)c1ccc2c(c1)[C@H](NC(=O)c1ccccc1Cl)CC2)C1CCCN(c2ccncc2)CC1 (stereo partly drawn) [Example H-116, (3R)-3-[(2-Chloro-benzoyl)amino]-N-methyl-N-(1-pyridin-4-yl-azepan-4-yl)-2,3-dihydro-1H-indene-5-carboxylic acid amide]	103	99

Reference: US8680159B2, “Bradykinin 1 receptor modulating compounds” (Gruenenthal GmbH, priority 2010, dated 2014)
